Experimental data: ChEMBL document CHEMBL1201862, “PubChem BioAssay data set” (2004)
Active and inactive are the calls of the source. For most assays here, no stated cut-off is given here; in the data, actives have a measured AC50 and inactives only a lower limit.

What was measured:
[1] = P. falciparum Dd2 growth inhibitors, dose response, SYBR Green, cherry-picked samples (AID 1159567); assay type: functional, cell-based
[2] = HepG2 cell cytotoxicity, dose response, cytotoxicity control, cherry-picked samples (AID 1159577); assay type: functional, cell-based
[3] = YAP1 pathway inhibition via CTGF transcript levels, dose response, cell-based, DLD1 colon cancer, RT-qPCR, cherry-pick (AID 1053122); assay type: functional; settings: Cancer cell lines
[4] = CTGF mRNA reduction under YAP1 overexpression, dose response, mechanism study for YAP1 pathway inhibitor project, DLD1 cells, RT-qPCR, cherry-pick (AID 1053127); assay type: functional, cell-based; settings: DLD-1
[5] = biological target: T1, NAD-dependent protein deacylase sirtuin-5, mitochondrial (Homo sapiens, UniProt Q9NXA8); assay: SIRT5 desuccinylase inhibitors, dose response, biochemical, fluorescence imaging, cherry-pick, set 5 (AID 720591);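 further: desuccinylation of succinyl peptide AMC substrate read as fluorescence after trypsin release; potency of inhibitors that lower fluorescence and may act on trypsin instead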
[6] = biological target: T1, NAD-dependent protein deacylase sirtuin-5, mitochondrial; assay: SIRT5 deacylase inhibitors, dose response, biochemical, fluorescence imaging, cherry-pick, set 6 (AID 720597)
[7] = A375 melanoma cell cytotoxicity, dose response, counter-screen for MITF inhibitor project, CellTiter-Glo luminescence, dry powder, set 2 (AID 624489); assay type: functional, cell-based; settings: A-375;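 further: actives are compounds lowering A375 viability meaning general cytotoxicity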
[8] = A375 melanoma cell viability loss, dose response, counter-screen for MITF inhibitor project, CellTiter-Glo luminescence, dry powder, set 4 (AID 624364); assay type: functional, cell-based; settings: A-375;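 further: A375 melanoma cells are MITF independent so this is a counter screen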
[9] = Artemis endonuclease inhibitor potency, dose response, biochemical, fluorescence intensity (AID 720701); assay type: functional;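 further: Artemis endonuclease enzyme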
[10] = biological target: T2, Low molecular weight phosphotyrosine protein phosphatase (Homo sapiens, UniProt P24666); assay type: functional; settings: read-out: IC50_Mean;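 further: Dose-response confirmation assay measuring inhibition of LMPTP enzyme activity by fluorescence intensity read-out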
T2 sequence (P24666 whole entry): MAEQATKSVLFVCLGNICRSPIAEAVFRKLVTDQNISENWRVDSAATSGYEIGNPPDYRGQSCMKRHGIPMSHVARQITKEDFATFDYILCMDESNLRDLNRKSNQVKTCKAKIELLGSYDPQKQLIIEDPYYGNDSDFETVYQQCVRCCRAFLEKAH

Kallikrein-7 = Kallikrein-7 (Homo sapiens, UniProt P49862); assay: Fluorescence Intensity-based biochemical primary high throughput dose response assay to identify activators of kallikrein-7 (K7) zymogen.
[11] = IGROV1 ovarian cancer cell cytotoxicity, dose response, PAX8 inhibitor project, plate reader, dry powder samples (AID 743043); assay type: functional, cell-based; settings: IGROV-1
[12] = cytotoxicity in COV362 ovarian cancer cells, dose response, cytotoxicity control for PAX8 inhibitor project, cell-based, plate reader, dry powder, SA12 (AID 743144); assay type: functional
[13] = cytotoxicity in COV434 cells, dose response, cytotoxicity control for PAX8 inhibitor project, cell-based, plate reader, dry powder, SA7 (AID 743145); assay type: functional
[14] = cytotoxicity in OVCAR4 cells, dose response, cytotoxicity control for PAX8 inhibitor project, cell-based, plate reader, dry powder, SA11 (AID 743150); assay type: functional; settings: OVCAR-4
[15] = cytotoxicity in OV-90 ovarian cancer cells, dose response, PAX8 inhibitor project, cell-based, plate reader, dry powder, SA8 (AID 743149); assay type: functional
[16] = PAX2 cell-based inhibition, dose response, selectivity assay for PAX8 inhibitor project, plate reader, dry powder samples (AID 743048); assay type: functional;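 further: HEK293 cells carrying a WT1 promoter luciferase reporter driven by expressed Pax2; potency is for inhibition of Pax2 driven reporter signal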
[17] = cytotoxicity dependent on PAX8, dose response, cell-based, plate reader, dry powder (AID 743049); assay type: functional
[18] = PAX5 activity inhibitors, dose response, selectivity assay for PAX8 inhibitor project, cell-based, plate reader, dry powder samples (AID 743047); assay type: functional;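 further: HEK293 cells carrying a Pax5 driven CD19 promoter luciferase reporter; potency of inhibitors that lower reporter luminescence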
[19] = NIH:OVCAR-3 ovarian cancer cell cytotoxicity, dose response, PAX8 inhibitor project, plate reader, dry powder samples (AID 743044); assay type: functional, cell-based
[20] = non-specific cell cytotoxicity, dose response, cytotoxicity control for PAX8 inhibitor project, plate reader, dry powder samples (AID 743021); assay type: functional, cell-based

T1 sequence (Q9NXA8 whole entry): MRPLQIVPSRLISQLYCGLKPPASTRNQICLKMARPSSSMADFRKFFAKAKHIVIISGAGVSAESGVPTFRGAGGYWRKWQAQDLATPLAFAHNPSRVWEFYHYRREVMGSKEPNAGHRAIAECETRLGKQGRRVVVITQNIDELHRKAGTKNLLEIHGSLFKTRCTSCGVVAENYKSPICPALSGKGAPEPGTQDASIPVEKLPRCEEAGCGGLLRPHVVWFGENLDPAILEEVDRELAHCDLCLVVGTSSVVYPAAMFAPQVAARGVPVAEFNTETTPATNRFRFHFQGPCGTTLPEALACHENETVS
Sequence of Kallikrein-7 (P49862 whole entry): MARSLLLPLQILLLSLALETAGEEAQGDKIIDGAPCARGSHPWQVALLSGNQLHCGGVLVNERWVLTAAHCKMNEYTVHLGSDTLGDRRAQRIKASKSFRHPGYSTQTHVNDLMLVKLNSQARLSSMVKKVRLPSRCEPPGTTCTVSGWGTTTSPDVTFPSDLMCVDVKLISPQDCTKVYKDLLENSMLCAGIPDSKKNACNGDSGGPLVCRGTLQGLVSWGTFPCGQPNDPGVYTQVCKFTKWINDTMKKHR

Which AC50 [1] does the source give for `C[C@@H]1CN([C@H](C)CO)C(=O)c2ccccc2-c2ccccc2CO[C@@H]1CN(C)Cc1ccc(Oc2ccccc2)cc1` here?
The AC50 was 6.67 µM (active).

And the AC50 [2]?
The AC50 was 19.8 µM (active).

And the AC50 [3]?
Its AC50 is 6.79 µM (active).

And the AC50 [4]?
Its AC50 is 7.84 µM (active).

Which AC50 [5] does the source give for `O=C(Cc1nnc(NC(=O)Nc2ccc(Cl)cc2)s1)NCc1ccccc1` here?
Its AC50 is > 30 µM (inactive).

Which AC50 [6] does the source give for `COCC(=O)N1C[C@H](C)[C@H](OC)CN(C)C(=O)c2cc(NC(=O)C3CCC3)ccc2OC[C@@H]1C` here?
Its AC50 is 13.2 µM (active).

With `CCN1CCN(C2=C(NS(=O)(=O)c3ccc(Br)s3)C(=O)c3ccccc3C2=O)CC1` as the molecule, how does the AC50 [7] read?
The AC50 was > 70 µM (inactive).

What about the AC50 [8] of the same molecule?
The AC50 was > 70 µM (inactive).

For `O=C1CC(c2ccco2)Cc2nc(Nc3nc(-c4ccccc4)c4ccccc4n3)ncc21` (stereo unspecified), which IC50 [9] is on record?
Its IC50 is > 20 µM (inactive).

What about the IC50 [10] of the same molecule?
The IC50 was 10.9 µM (active).

For `COc1ccc(NC(=O)c2cc(-c3ccco3)on2)cc1OC`, which EC50 (Kallikrein-7) is on record?
Its EC50 is 13.1 µM (inactive).

For `CN(C)CCN(C(=O)/C=C/c1cccs1)c1nc2c(F)cc(F)cc2s1`, which AC50 [11] is on record?
The AC50 was 34.3 µM (active).

What about the AC50 [12] of the same molecule?
Its AC50 is 21.2 µM (active).

And the AC50 [13]?
The AC50 was 44.9 µM (active).

What about the AC50 [14] of the same molecule?
The AC50 was 31.2 µM (active).

What about the AC50 [15] of the same molecule?
Its AC50 is 32.8 µM (active).

What about the AC50 [16] of the same molecule?
The AC50 was > 100 µM (inactive).

And the AC50 [17]?
The AC50 was 19.4 µM (active).

And the AC50 [18]?
The AC50 was > 100 µM (inactive).

And the AC50 [19]?
Its AC50 is 29.1 µM (active).

And the AC50 [20]?
Its AC50 is 11.6 µM (active).
